Values after ≈ are worked out from the molar mass of the structure shown. Values joined by “and” are separate entries in the source; they are usually repeats but may differ in a detail not shown here. Equal values may be shown once.
What was measured:
Type in all cases: cell-based
S. epidermidis (MRSE) = test: MIC, clinical and laboratory strains
Description: (§1) The medium employed for the assay was Mueller Hinton II Broth (MHB II; Becton-Dickinson, Sparks, MD, USA). Agar plates used for the organisms were trypticase soy agar plus 5% sheep blood (BD; Sparks, MD, USA). MIC assay plates were prepared using the CLSI broth microdilution procedure. Automated liquid handlers (Multidrop 384, Biomek 2000 and Biomek FX) were used to conduct serial dilutions and liquid transfers. A standardized inoculum of each organism was prepared per CLSI methods. Suspensions were prepared to equal a 0.5 McFarland standard, followed by a 1:20 dilution in test media. The inocula were dispensed into sterile reservoirs divided by length (Beckman Colter) and the Biomek 2000 was used to inoculate the plates. Daughter plates were placed on the Biomek 2000 work surface in reverse orientation so that inoculation took place from low to high drug concentration. The Biomek 2000 delivered 10 μL of the diluted suspension into each well. These inoculations yielded a final cell concentration in the daughter plates of ~5 × 10^5 colony-forming units/mL in each well. The wells of the daughter plates ultimately contained 185 μL of broth, 5 μL of drug solution, and 10 μL of bacterial inoculum. Plates were covered with a sterile lid on the top plate, placed in plastic bags, and incubated at 35 °C for ~18 h. The microplates were viewed from the bottom using a plate viewer and the MIC was read. The MIC was recorded as the lowest concentration of drug that inhibited visible growth of the organism.

S. aureus (VISA) = test: MIC, clinical and laboratory strains
Description: as §1

S. aureus (MSSA) = test: MIC, clinical and laboratory strains
Description: as §1

S. epidermidis (VISE) = test: MIC, clinical and laboratory strains
Description: as §1

S. epidermidis (MSSE) = test: MIC, clinical and laboratory strains
Description: as §1

S. aureus (MRSA) = test: MIC, clinical and laboratory strains
Description: as §1

[1] = test system: E. coli D22 over-expressing AcpS; test: MIC upon IPTG-induced over-expression of MBP-AcpS (MBP only as control)
Text: Over-expression of AcpS was confirmed by western blot (Supplementary Fig. 6b). This is consistent with inhibition of AcpS being the major mechanism of action for the antimicrobial activity of DNM0547.
Supplementary Figure 6. Increased expression of AcpS increases the MIC of DNM0547. a , the minimum inhibitory concentration (MIC; µg/ml) of the D22 strain of E. coli upon expression of plasmid borne maltose binding protein (MBP) AcpS from an IPTG inducible promoter versus just over-expression of MBP only. The D22 strain of E. coli has a porous outer membrane due to a point mutation in the lpxC gene enabling some compounds to enter the cell that can not permeate wild type E. coli. AcpS is expressed as a fusion with MBP. MICs were determined upon IPTG induction of MBP-AcpS with expression of just MBP used as control. b, western blot against MBP (New England Biolabs E8032S, 1:1000 dilution) to assess expression; IPTG induced expression of MBP and MBP-AcpS at the expected M Wts. c, equal protein was added from each E. coli protein extract used for the western blot. Ponceau stain of the membrane to assess protein loading and transfer.
(also on this page, place not known: DH5a BL 21 D 22 pMAL pMAL pAcpS pAcpS pMAL pMAL pAcpS pAcpS pMAL + pMAL pAcpS + pAcpS - - + - + - + - + - a, AcpS MBP M Compound MBP MBP-AcpS DNM0547 32 256) […]

SMILES: CC(C)c1cc(Cl)ccc1-c1cc(-c2nnn[nH]2)c(-c2ccc(Cl)cc2C(C)C)s1 [DNM0547]
- MIC (S. epidermidis (MRSE); S. epidermidis (MRSE) 3679): 2 µg/mL (≈ 4.37 µM)
- MIC (S. epidermidis (MRSE); S. epidermidis (MRSE) 3680): 2 µg/mL (≈ 4.37 µM)
- MIC (S. epidermidis (MRSE); S. epidermidis (MRSE) 3681): 1 µg/mL (≈ 2.19 µM)
- MIC (S. epidermidis (MRSE); S. epidermidis (MRSE) 3683): 2 µg/mL (≈ 4.37 µM)
- MIC (S. epidermidis (MRSE); S. epidermidis (MRSE) 3745): 8 µg/mL (≈ 17.5 µM)
- MIC (S. epidermidis (MRSE); S. epidermidis (MRSE) 3746): 2 µg/mL (≈ 4.37 µM)
- MIC (S. epidermidis (MRSE); S. epidermidis (MRSE) 3747): 2 µg/mL (≈ 4.37 µM)
- MIC (S. aureus (VISA); S. aureus (VISA) 1724): 2 µg/mL (≈ 4.37 µM)
- MIC (S. aureus (VISA); S. aureus (VISA) 2012): 2 µg/mL (≈ 4.37 µM)
- MIC (S. aureus (VISA); S. aureus (VISA) 2013): 2 µg/mL (≈ 4.37 µM)
- MIC (S. aureus (VISA); S. aureus (VISA) 2014): 2 µg/mL (≈ 4.37 µM)
- MIC (S. aureus (VISA); S. aureus (VISA) 2015): 2 µg/mL (≈ 4.37 µM)
- MIC (S. aureus (VISA); S. aureus (VISA) 2016): 2 µg/mL (≈ 4.37 µM)
- MIC (S. aureus (VISA); S. aureus (VISA) 2017): 2 µg/mL (≈ 4.37 µM)
- MIC (S. aureus (VISA); S. aureus (VISA) 2018): 2 µg/mL (≈ 4.37 µM)
- MIC (S. aureus (VISA); S. aureus (VISA) 2019): 1 µg/mL (≈ 2.19 µM)
- MIC (S. aureus (VISA); S. aureus (VISA) 2123): 2 µg/mL (≈ 4.37 µM)
- MIC (S. aureus (VISA); S. aureus (VISA) NRS1/1723): 2 µg/mL (≈ 4.37 µM)
- MIC (S. aureus (MSSA); S. aureus (MSSA) 2127): 1 µg/mL (≈ 2.19 µM)
- MIC (S. aureus (MSSA); S. aureus (MSSA) 6167): 2 µg/mL (≈ 4.37 µM)
- MIC (S. aureus (MSSA); S. aureus (MSSA) 6168): 1 µg/mL (≈ 2.19 µM)
- MIC (S. aureus (MSSA); S. aureus (MSSA) 6170): 1 µg/mL (≈ 2.19 µM)
- MIC (S. aureus (MSSA); S. aureus (MSSA) 6316): 2 µg/mL (≈ 4.37 µM)
- MIC (S. aureus (MSSA); S. aureus (MSSA) 6317): 1 µg/mL (≈ 2.19 µM)
- MIC (S. aureus (MSSA); S. aureus (MSSA) 6318): 1 µg/mL (≈ 2.19 µM)
- MIC (S. aureus (MSSA); S. aureus (MSSA) 6499): 2 µg/mL (≈ 4.37 µM)
- MIC (S. aureus (MSSA); S. aureus (MSSA) 6500): 1 µg/mL (≈ 2.19 µM)
- MIC (S. aureus (MSSA); S. aureus (MSSA) 6502): 1 µg/mL (≈ 2.19 µM)
- MIC (S. epidermidis (VISE); S. epidermidis (VISE) 2020): 8 µg/mL (≈ 17.5 µM)
- MIC (S. epidermidis (VISE); S. epidermidis (VISE) 2021): 1 µg/mL (≈ 2.19 µM)
- MIC (S. epidermidis (VISE); S. epidermidis (VISE) 2022): 2 µg/mL (≈ 4.37 µM)
- MIC (S. epidermidis (VISE); S. epidermidis (VISE) 2023): 4 µg/mL (≈ 8.74 µM)
- MIC (S. epidermidis (VISE); S. epidermidis (VISE) 2024): 32 µg/mL (≈ 70 µM)
- MIC (S. epidermidis (VISE); S. epidermidis (VISE) 2025): 4 µg/mL (≈ 8.74 µM)
- MIC (S. epidermidis (MSSE); S. epidermidis (MSSE) 3234): 4 µg/mL (≈ 8.74 µM)
- MIC (S. epidermidis (MSSE); S. epidermidis (MSSE) 3602): 2 µg/mL (≈ 4.37 µM)
- MIC (S. epidermidis (MSSE); S. epidermidis (MSSE) 3609): 4 µg/mL (≈ 8.74 µM)
- MIC (S. epidermidis (MSSE); S. epidermidis (MSSE) 3617): 1 µg/mL (≈ 2.19 µM)
- MIC (S. epidermidis (MSSE); S. epidermidis (MSSE) 3620): 2 µg/mL (≈ 4.37 µM)
- MIC (S. epidermidis (MSSE); S. epidermidis (MSSE) 3621): 1 µg/mL (≈ 2.19 µM)
- MIC (S. aureus (MRSA); S. aureus (MRSA) 2167): 1 µg/mL (≈ 2.19 µM)
- MIC (S. aureus (MRSA); S. aureus (MRSA) 2168): 1 µg/mL (≈ 2.19 µM)
- MIC (S. aureus (MRSA); S. aureus (MRSA) 2169): 2 µg/mL (≈ 4.37 µM)
- MIC (S. aureus (MRSA); S. aureus (MRSA) 2170): 1 µg/mL (≈ 2.19 µM)
- MIC (S. aureus (MRSA); S. aureus (MRSA) 2171): 1 µg/mL (≈ 2.19 µM)
- MIC (S. aureus (MRSA); S. aureus (MRSA) 2293): 2 µg/mL (≈ 4.37 µM)
- MIC (S. aureus (MRSA); S. aureus (MRSA) 2294): 1 µg/mL (≈ 2.19 µM)
- MIC (S. aureus (MRSA); S. aureus (MRSA) 2295): 1 µg/mL (≈ 2.19 µM)
- MIC (S. aureus (MRSA); S. aureus (MRSA) 2296): 1 µg/mL (≈ 2.19 µM)
- MIC (S. aureus (MRSA); S. aureus (MRSA) 2297): 2 µg/mL (≈ 4.37 µM)
- MIC (S. aureus (MRSA); S. aureus (MRSA) 3880): 1 µg/mL (≈ 2.19 µM)
- MIC (S. aureus (MRSA); S. aureus (MRSA) 5373): 1 µg/mL (≈ 2.19 µM)
- MIC (S. aureus (MRSA); S. aureus (MRSA) 5666): 1 µg/mL (≈ 2.19 µM)
- MIC (S. aureus (MRSA); S. aureus (MRSA) 5702): 1 µg/mL (≈ 2.19 µM)
- MIC (S. aureus (MRSA); S. aureus (MRSA) 5999): 1 µg/mL (≈ 2.19 µM)
- MIC (S. aureus (MRSA); S. aureus (MRSA) 6165): 1 µg/mL (≈ 2.19 µM)
- MIC (S. aureus (MRSA); S. aureus (MRSA) 6169): 1 µg/mL (≈ 2.19 µM)
- MIC (S. aureus (MRSA); S. aureus (MRSA) 6174): 1 µg/mL (≈ 2.19 µM)
- MIC (S. aureus (MRSA); S. aureus (MRSA) 6311): 1 µg/mL (≈ 2.19 µM)
- MIC (S. aureus (MRSA); S. aureus (MRSA) 6312): 2 µg/mL (≈ 4.37 µM)
- MIC (S. aureus (MRSA); S. aureus (MRSA) 6313): 1 µg/mL (≈ 2.19 µM)
- MIC (S. aureus (MRSA); S. aureus (MRSA) 6315): 1 µg/mL (≈ 2.19 µM)
- MIC (S. aureus (MRSA); S. aureus (MRSA) 6320): 1 µg/mL (≈ 2.19 µM)
- MIC (S. aureus (MRSA); S. aureus (MRSA) 6498): 2 µg/mL (≈ 4.37 µM)
- MIC (S. aureus (MRSA); S. aureus (MRSA) 6501): 2 µg/mL (≈ 4.37 µM)
- MIC (S. aureus (MRSA); S. aureus (MRSA) 6505): 1 µg/mL (≈ 2.19 µM)
- MIC (S. aureus (MRSA); S. aureus (MRSA) 6506): 2 µg/mL (≈ 4.37 µM)
- MIC (S. aureus (MRSA); S. aureus (MRSA) NRS382/2119): 1 µg/mL (≈ 2.19 µM)
- MIC (S. aureus (MRSA); S. aureus (MRSA) NRS383/2120): 1 µg/mL (≈ 2.19 µM)
- MIC (S. aureus (MRSA); S. aureus (MRSA) NRS384/2011): 2 µg/mL (≈ 4.37 µM)
- MIC ([1]; E. coli D22, IPTG-induced MBP only (control)): 32 µg/mL (≈ 70 µM)
- MIC ([1]; E. coli D22, IPTG-induced MBP-AcpS): 256 µg/mL (≈ 560 µM)
- MIC ([1]; Escherichia coli, E. coli D22 with over-expression of AcpS): 256 µg/mL (≈ 560 µM)
- MIC ([1]; Escherichia coli, Suppl Fig 6a, MBP (control), replicates): 32 µg/mL (≈ 70 µM)
- MIC ([1]; Escherichia coli, Suppl Fig 6a, MBP-AcpS, replicates): 256 µg/mL (≈ 560 µM)
- MIC ([1]; Suppl Fig 6a, MBP (control), replicates): 32 µg/mL (≈ 70 µM)
- MIC ([1]; Suppl Fig 6a, MBP-AcpS, replicates): 256 µg/mL and >256 µg/mL

— publication PMC11436758, “Computer-aided drug design to generate a unique antibiotic family” (Nature Communications, 2024)
